Laboratory results published in patent publication US6403650B1, “Treatment of pulmonary hypertension” (Knoll Pharmaceutical Company, priority 1999, dated 2002).

Legend:
[1] = target: [3H]Noradenaline reuptake; experiment: in vitro [3H]noradrenaline reuptake inhibition in rat brain tissue; format: biochemical; settings: means of ≧3 separate determinations
[3H]Dopamine reuptake = in vitro [3H]dopamine reuptake inhibition in rat brain tissue; format: biochemical; settings: means of ≧3 separate determinations

SMILES: CC(NC(C)(C)C)C(=O)c1cccc(Cl)c1 (stereo not shown) [Bupropion]
- Ki [1]: 2590 nM
- Ki ([3H]Dopamine reuptake): 409 nM

SMILES: COc1ccc(C(CN(C)C)C2(O)CCCCC2)cc1 (stereo not shown) [Venlafaxine]
- Ki [1]: 196 nM
- Ki ([3H]Dopamine reuptake): 2590 nM
